Assays:
A549 cell line = assay: MTT anti-proliferative assay; assay type: cell-based; conditions: Homo sapiens, 48 h of incubation, mean ± SD of three experiments
Procedure: (§1) A549 (non-small cell lung cancer cell line) and HCT-116 (human colon cancer cell line), were obtained from American Type Culture Collection (Manassas, VA, USA). The cells were maintained in Dulbecco’s Modified Eagle’s Medium (DMEM) (Sigma-Aldrich, St. Louis, MO), and supplemented with 10% heat-inactivated FBS (Hyclone), 10 μg/mL of insulin (Manufacturer, Sigma, St. Louis, MO, USA), and 1% penicillin-streptomycin. MTT assay[29] was adopted to assess the in vitro antitumor activity of the newly synthesized pyridines 5a–l according to the reported procedures, using Doxorubicin as a standard treatment. Experimental conditions were tested using three replicates (three wells of the 96-well plate per experimental condition) and all experiments were carried out in triplicates. IC50 values were calculated by the use of the equation for Boltzman sigmoidal concentration–response curve using the nonlinear regression fitting models by Graph Pad, Prism version 5 (GraphPad Software Inc., La Jolla, CA).
(§2) All newly synthesized pyridines 5a–l were examined for their anti-proliferative activity towards two cancer cell lines: non-small cell lung cancer A549 cell line and colon cancer HCT-116 cell line. The MTT colorimetric assay was adopted to assess the anti-proliferative activity as described by Mosmann[29]. Doxorubicin was used as a control in this assay.

HCT-116 cell line = assay: MTT anti-proliferative assay; assay type: cell-based; conditions: Homo sapiens, 48 h of incubation, mean ± SD of three experiments
Procedure: as §1, §2

[1] = tested on: 60 cancer cell lines (NCI, USA); assay: NCI one-dose SRB assay, whole panel; assay type: cell-based, human; conditions: 10 μM; for Sensitive cell lines no.: cell lines with GI% higher than 10%
Procedure: (§3) The antitumor assay was performed according to the protocol of the Drug Evaluation Branch, NCI, Bethesda[24–26]. A 48 h drug exposure protocol was adopted, and sulforhodamine B (SRB) assay[27] was utilized to assess the cell growth and viability, as reported earlier[17]^,[28].
(§4) The structures of all the newly synthesized pyridines 5a–l were submitted to the National Cancer Institute (NCI) Developmental Therapeutic Program (www.dtp.nci.nih.gov). […] Nine different types of cancer were tested in this assay: colon, ovarian, prostate, leukemia, melanoma, CNS, renal, breast and lung cancers. A 48 h drug exposure protocol was adopted, and sulforhodamine B (SRB) assay[27] was utilized to assess the cell growth and viability.

MDA-MB-468 = assay: NCI one-dose SRB growth inhibition; assay type: cell-based; conditions: Homo sapiens, Breast Cancer, 48 h, read-out: GI% MDA-MB-468
Procedure: as §3, §4

NCI-H23 = assay: NCI one-dose SRB growth inhibition; assay type: cell-based; conditions: Homo sapiens, Non-Small Cell Lung Cancer, 48 h, read-out: GI% NCI-H23
Procedure: as §3, §4

MDA-MB-231 = assay: NCI one-dose SRB growth inhibition; assay type: cell-based; conditions: Homo sapiens, Breast Cancer, 48 h, read-out: GI% MDA-MB-231
Procedure: as §3, §4

MALME-3M = assay: NCI one-dose SRB growth inhibition; assay type: cell-based; conditions: Homo sapiens, Melanoma, 48 h, read-out: GI% MALME-3M
Procedure: as §3, §4

MCF7 = assay: NCI one-dose SRB growth inhibition; assay type: cell-based; conditions: Homo sapiens, Breast Cancer, 48 h, read-out: GI% MCF7
Procedure: as §3, §4

HL-60(TB) = assay: NCI one-dose SRB growth inhibition; assay type: cell-based; conditions: Homo sapiens, Leukemia, 48 h, read-out: GI% HL-60(TB)
Procedure: as §3, §4

SW-620 = assay: NCI one-dose SRB growth inhibition; assay type: cell-based; conditions: Homo sapiens, Colon Cancer, 48 h, read-out: GI% SW-620
Procedure: as §3, §4

A549/ATCC = assay: NCI one-dose SRB growth inhibition; assay type: cell-based; conditions: Homo sapiens, A549, 48 h, Non-Small Cell Lung Cancer, read-out: GI% A549/ATCC
Procedure: as §3, §4

OVCAR-3 = assay: NCI one-dose SRB growth inhibition; assay type: cell-based; conditions: Homo sapiens, OVCAR-3, 48 h, Ovarian Cancer, read-out: GI% OVCAR-3
Procedure: as §3, §4

K-562 = assay: NCI one-dose SRB growth inhibition; assay type: cell-based; conditions: Homo sapiens, K562, 48 h, Leukemia, read-out: GI% K-562
Procedure: as §3, §4

RXF 393 = assay: NCI one-dose SRB growth inhibition; assay type: cell-based; conditions: Homo sapiens, Renal Cancer, 48 h, read-out: GI% RXF 393
Procedure: as §3, §4

CCRF-CEM = assay: NCI one-dose SRB growth inhibition; assay type: cell-based; conditions: Homo sapiens, Leukemia, 48 h, read-out: GI% CCRF-CEM
Procedure: as §3, §4

DU-145 = assay: NCI one-dose SRB growth inhibition; assay type: cell-based; conditions: Homo sapiens, Prostate, 48 h, read-out: GI% DU-145
Procedure: as §3, §4

SF-295 = assay: NCI one-dose SRB growth inhibition; assay type: cell-based; conditions: Homo sapiens, CNS Cancer, 48 h, read-out: GI% SF-295
Procedure: as §3, §4

MOLT-4 = assay: NCI one-dose SRB growth inhibition; assay type: cell-based; conditions: Homo sapiens, Leukemia, 48 h, read-out: GI% MOLT-4
Procedure: as §3, §4

NCI-H522 = assay: NCI one-dose SRB growth inhibition; assay type: cell-based; conditions: Homo sapiens, NCI-H522, 48 h, Non-Small Cell Lung Cancer, read-out: GI% NCI-H522
Procedure: as §3, §4

NCI/ADR-RES = assay: NCI one-dose SRB growth inhibition; assay type: cell-based; conditions: Homo sapiens, Ovarian Cancer, 48 h, read-out: GI% NCI/ADR-RES
Procedure: as §3, §4

NCI-H322M = assay: NCI one-dose SRB growth inhibition; assay type: cell-based; conditions: Homo sapiens, Non-Small Cell Lung Cancer, 48 h, read-out: GI% NCI-H322M
Procedure: as §3, §4

IGROV1 = assay: NCI one-dose SRB growth inhibition; assay type: cell-based; conditions: Homo sapiens, IGROV-1, Ovarian Cancer, 48 h, read-out: GI% IGROV1
Procedure: as §3, §4

TK-10 = assay: NCI one-dose SRB growth inhibition; assay type: cell-based; conditions: Homo sapiens, Renal Cancer, 48 h, read-out: GI% TK-10
Procedure: as §3, §4

NCI-H460 = assay: NCI one-dose SRB growth inhibition; assay type: cell-based; conditions: Homo sapiens, Non-Small Cell Lung Cancer, 48 h, read-out: GI% NCI-H460
Procedure: as §3, §4

NCI-H226 = assay: NCI one-dose SRB growth inhibition; assay type: cell-based; conditions: Homo sapiens, Non-Small Cell Lung Cancer, 48 h, read-out: GI% NCI-H226
Procedure: as §3, §4

BT-549 = assay: NCI one-dose SRB growth inhibition; assay type: cell-based; conditions: Homo sapiens, Breast Cancer, 48 h, read-out: GI% BT-549
Procedure: as §3, §4

Structure (SMILES)	IC50 (A549 cell line)	IC50 (HCT-116 cell line)	Sensitive cell lines no. [1]	inhibition at 10 µM (MDA-MB-468)	inhibition at 10 µM (NCI-H23)	inhibition at 10 µM (MDA-MB-231)	inhibition at 10 µM (MALME-3M)	inhibition at 10 µM (MCF7)	inhibition at 10 µM (HL-60(TB))	inhibition at 10 µM (SW-620)	inhibition at 10 µM (A549/ATCC)	inhibition at 10 µM (OVCAR-3)	inhibition at 10 µM (K-562)	inhibition at 10 µM (RXF 393)	inhibition at 10 µM (CCRF-CEM)	inhibition at 10 µM (DU-145)	inhibition at 10 µM (SF-295)	inhibition at 10 µM (MOLT-4)	inhibition at 10 µM (NCI-H522)	inhibition at 10 µM (NCI/ADR-RES)	further results
Cc1nc(-c2ccc(F)cc2)ccc1NC(=O)Nc1cccc(C(F)(F)F)c1 [Compound 5a, 1-(6-(4-Fluorophenyl)-2-methylpyridin-3-yl)-3-(3-(trifluoromethyl)phenyl)urea]	6.83 ± 0.42 µM	5.49 ± 0.3 µM	42	32%	24%	28%	< 10%	30%	11%	< 10%	> 40%	> 40%	> 40%	< 10%	25%	11%	17%	33%	> 40%	20%	mean % GI ([1]; mean over NCI panel): 22%; inhibition at 10 µM (NCI-H322M): 15%; inhibition at 10 µM (IGROV1): < 10%; inhibition at 10 µM (TK-10): < 10%; inhibition at 10 µM (NCI-H460): 34%; inhibition at 10 µM (NCI-H226): 18%; inhibition at 10 µM (BT-549): < 10%; melting point: 223 to 225 °C
Cc1nc(-c2ccc(F)cc2)ccc1NC(=O)Nc1ccc2c(c1)OCO2 [Compound 5d, 1-(Benzo[d][1, 3]dioxol-5-yl)-3-(6-(4-fluorophenyl)-2-methylpyridin-3-yl)urea]	12.5 ± 0.85 µM	10.4 ± 0.84 µM	12	< 10%	< 10%	< 10%	< 10%	< 10%	< 10%	< 10%	13%	< 10%	23%	< 10%	< 10%	< 10%	< 10%	< 10%	45%	< 10%	inhibition at 10 µM (NCI-H322M): < 10%; inhibition at 10 µM (IGROV1): < 10%; inhibition at 10 µM (TK-10): < 10%; inhibition at 10 µM (NCI-H460): < 10%; inhibition at 10 µM (NCI-H226): < 10%; inhibition at 10 µM (BT-549): < 10%; melting point: 254 to 256 °C
Cc1nc(-c2cccs2)ccc1NC(=O)Nc1ccc(F)cc1 [Compound 5h, 1-(4-Fluorophenyl)-3-(2-methyl-6-(thiophen-2-yl)pyridin-3-yl)urea]	10.6 ± 0.86 µM	8.25 ± 0.84 µM	23	16%	16%	< 10%	< 10%	22%	15%	< 10%	32%	< 10%	22%	< 10%	10%	< 10%	< 10%	29%	39%	< 10%	inhibition at 10 µM (NCI-H322M): < 10%; inhibition at 10 µM (IGROV1): < 10%; inhibition at 10 µM (TK-10): < 10%; inhibition at 10 µM (NCI-H460): < 10%; inhibition at 10 µM (NCI-H226): < 10%; inhibition at 10 µM (BT-549): < 10%; melting point: 217 to 219 °C
CCOC(=O)c1ccc(NC(=O)Nc2ccc(-c3cccs3)nc2C)cc1 [Compound 5j, Ethyl 4-(3-(2-methyl-6-(thiophen-2-yl)pyridin-3-yl)ureido)benzoate]	8.04 ± 0.59 µM	9.38 ± 0.67 µM	24	13%	< 10%	< 10%	< 10%	21%	10%	< 10%	35%	< 10%	42%	< 10%	50%	< 10%	< 10%	44%	52%	< 10%	inhibition at 10 µM (NCI-H322M): 17%; inhibition at 10 µM (IGROV1): < 10%; inhibition at 10 µM (TK-10): < 10%; inhibition at 10 µM (NCI-H460): 43%; inhibition at 10 µM (NCI-H226): < 10%; inhibition at 10 µM (BT-549): 15%; melting point: 203 to 204 °C

From article PMC6366416, “Synthesis and in vitro anticancer activity of certain novel 1-(2-methyl-6-arylpyridin-3-yl)-3-phenylureas as apoptosis-inducing agents” (Journal of Enzyme Inhibition and Medicinal Chemistry, 2019)
